This is an account of results in patent publication US20120122843A1, “Compounds and Their Use for Treatment of Amyloid Beta-Related Diseases” (ASTRAZENECA AB, priority 2010, published 2012).

Each structure is given as a SMILES string. pIC50: −log10 of the molar value. Where only a bound is given, the exact number is not on record here.

One test has as its system Aβ42. The test can be described thus: Aβ42 release from HEK cells stably expressing APPswe (MSD electrochemiluminescence). The test is classed as cell-based, Human. Particulars: 4-6 h incubation with test compound, Aβ42 secreted to cell medium. The method in brief:
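HEK cells stably expressing APPswe, plated 15–24 h, then given compound in fresh medium (diluted ×200 from compound plate) for 4–6 h at 37 °C. Secreted Aβ in medium measured by MSD electrochemiluminescence; total Aβ via 6E10 plus 4G8 antibodies, Aβ42 via specific antibody. Cytotoxicity checked by ATP content of lysate.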

The next test has as its system Aβtotal. As to the kind of experiment: Total Aβ release from HEK cells stably expressing APPswe (MSD, 6E10 and 4G8 antibodies). The test is classed as cell-based. To be noted: Homo sapiens, HEK293, 4-6 h incubation with test compound, total Aβ secreted to cell medium. Here is the method: The level of activity of the compounds on Aβ formation was tested using the following method:
Compounds were diluted in 100% DMSO and stored at […] prior to use. Human Embryonic Kidney (HEK) cell line stably expressing APP with the Swedish mutation (APPswe) were cultured using Dulbecco's Modified Eagles medium (DMEM) supplied with […] glucose, Na-pyruvate and GlutaMAX with 10% FBS, 100 U/ml penicillin-streptomycin (PEST) respectively, 1× non-essential amino acids (NEAA), […] Hepes, 100 μg/ml Zeocine. Cells at about 80% confluence were washed with PBS, detached from culture flasks using 1× Trypsin/EDTA diluted in PBS, re-suspended in cell media and plated in 384-well poly-d-lysine coated cell culture plates at about 10000-15000 cells/well, in 25 μL cell media. Optionally, cryo-preserved cells (frozen and stored at −140° C. in 90% cell media and 10% DMSO) were thawed, washed and plated as above. Next the cells were incubated for 15-24 h at 37° C. and 5% CO2, after which cell medium was changed. Fresh medium containing test compound diluted ×200 from prepared compound plate was added to the cells before further incubation for 4-6 hours at 37° C. and 5% CO2. After incubation with test compound the amount of Aβ peptides, including Aβ42, Aβ40, Aβ39, Aβ38 and Aβ37, as well as total Aβ levels, secreted to cell medium was analyzed using the electrochemiluminescence assay technology from Meso Scale Discovery (MSD), in combination with specific antibodies raised against the different Aβ peptides. Aβ42, Aβ40 and Aβ38 antibodies were purchased from MSD and Aβ37 and Aβ39 were made in house. Total Aβ was measured using a combination of 6E10 and 4G8 anti Aβ antibodies from MSD. Potential cytotoxic effects of the compounds were usually assayed by measuring the ATP content (ViaLight) from cell lysate.

Another test relates to Notch. As to the kind of experiment: Release and translocation of Notch intracellular domain into the nucleus, HEK/AENotch cells (NICD immunostaining, ImageXpress). To be noted: 3 μM Lactacystin, 4-6 h incubation, nucleus/cytosol NICD fluorescence ratio. The format is cell-based, Human. In short, it runs like this:
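HEK cells overexpressing a Notch1-ΔE-myc construct were plated for 15–24 h, then treated 4–6 h with compound (typically up to 25 μM, 0.5% DMSO) plus 3 μM Lactacystin. Fixed cells were immunostained for NICD, and the nuclear/cytosolic fluorescence ratio was imaged. Cytotoxicity was judged by nucleus area or cell number.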

[1] abbreviates: Homo sapiens, HEK293, HEK cells expressing APPswe.

Consider `COc1nc(Nc2ccc3c(n2)OC(CC(F)(F)F)CN(C)C3C)ccc1-c1cnn(C)c1` (single isomer, unassigned) [Example 33, N-(6-Methoxy-5-(1-methyl-1H-pyrazol-4-yl)pyridin-2-yl)-4,5-dimethyl-2-(2,2,2-trifluoroethyl)-2,3,4,5-tetrahydropyrido[3,2-f][1,4]oxazepin-8-amine], for which the values for the pIC50 with Aβ42 (setting [1]), in the test on Aβtotal and with Notch (Homo sapiens) were 8.10, less than 5.30 and less than 4.60, respectively.
Consider `COc1nc(Nc2ccc3c(n2)OC(C2CC(F)(F)C2)CN(C)C3)ccc1-c1cnn(C)c1` (single isomer, unassigned) [Example 37, 2-(3,3-Difluorocyclobutyl)-N-(6-methoxy-5-(1-methyl-1H-pyrazol-4-yl)pyridin-2-yl)-4-methyl-2,3,4,5-tetrahydropyrido[3,2-f][1,4]oxazepin-8-amine], for which the pIC50 was 8.40 in the test on Aβ42 (HEK cells expressing APPswe), less than 6.00 in the test with Aβtotal and less than 4.60 in the test on Notch (Homo sapiens).
For `COc1nc(Nc2ccc3c(n2)OC(CC(F)(F)F)CN(C)C3)ccc1-c1cnn(C)c1` (single isomer, unassigned; (+)) [Example 4, (+)-N-(6-Methoxy-5-(1-methyl-1H-pyrazol-4-yl)pyridin-2-yl)-4-methyl-2-(2,2,2-trifluoroethyl)-2,3,4,5-tetrahydropyrido[3,2-f][1,4]oxazepin-8-amine], the pIC50 with Aβ42 (HEK cells expressing APPswe) was 8.05; with Aβtotal, 6.29; in the test on Notch (Homo sapiens), less than 4.60.
For `COc1nc(Nc2ccc3c(n2)OC(CCC(F)(F)F)CN(C)C3)ccc1-n1cnc(C)c1` (single isomer, unassigned; (+)) [Example 61, (+)-[6-Methoxy-5-(4-methyl-imidazol-1-yl)-pyridin-2-yl]-[6-methyl-8-(3,3,3-trifluoro-propyl)-5,6,7,8-tetrahydro-9-oxa-1,6-diaza-benzocyclohepten-2-yl]-amine], the pIC50 in the test with Aβ42 (setting [1]) was 8.52; with Aβtotal it was less than 6.00; in the test on Notch (Homo sapiens), less than 4.60.
In the case of `COc1nc(Nc2ccc3c(n2)OC(CC(CF)CF)CN(C)C3)ccc1-n1cnc(C)c1` (single isomer, unassigned; (+)) [Example 67, (+)-[8-(3-Fluoro-2-fluoromethyl-propyl)-6-methyl-5,6,7,8-tetrahydro-9-oxa-1,6-diaza-benzocyclohepten-2-yl]-[6-methoxy-5-(4-methyl-imidazol-1-yl)-pyridin-2-yl]-amine], the pIC50 is 8.00 in the test with Aβ42 (setting [1]), less than 4.60 in the test on Aβtotal and 5.21 in the test on Notch.
Regarding `COc1nc(Nc2ccc3c(n2)OC(c2nc(C)cs2)CN(C)C3)ccc1-n1cnc(C)c1` (stereo not drawn) [Example 12, N-(6-Methoxy-5-(4-methyl-1H-imidazol-1-yl)pyridin-2-yl)-4-methyl-2-(4-methylthiazol-2-yl)-2,3,4,5-tetrahydropyrido[3,2-f][1,4]oxazepin-8-amine], the pIC50 in the test on Aβ42 (setting [1]) is 7.89; with Aβtotal it was 5.73; in the test with Notch (Homo sapiens) it was less than 4.60.
For `COc1nc(Nc2ccc3c(n2)OC(CCC(F)(F)F)CN(C)C3)ccc1-c1cnn(C)c1` (stereo not drawn) [Example 27, [6-Methoxy-5-(1-methyl-1H-pyrazol-4-yl)-pyridin-2-yl]-[6-methyl-8-(3,3,3-trifluoro-propyl)-5,6,7,8-tetrahydro-9-oxa-1,6-diaza-benzocyclohepten-2-yl]-amine] the same measures were 7.92, 5.06 and 4.79.
For `COc1nc(Nc2ccc3c(n2)OC(CCC(F)(F)F)CN(C)C3)ccc1-n1cnc(C)c1` (stereo not drawn) [Example 28, [6-Methoxy-5-(4-methyl-imidazol-1-yl)-pyridin-2-yl]-[6-methyl-8-(3,3,3-trifluoro-propyl)-5,6,7,8-tetrahydro-9-oxa-1,6-diaza-benzocyclohepten-2-yl]-amine] the same measures were 8.15, less than 6.00 and less than 4.60.
The like results for `COc1nc(Nc2ccc3c(n2)OC(CC(CF)CF)CN(C)C3)ccc1-c1cnn(C)c1` (stereo not drawn) [Example 31, [8-(3-Fluoro-2-fluoromethyl-propyl)-6-methyl-5,6,7,8-tetrahydro-9-oxa-1,6-diaza-benzocyclohepten-2-yl]-[6-methoxy-5-(1-methyl-1H-pyrazol-4-yl)-pyridin-2-yl]-amine] were, in that order, 7.66, 5.02 and less than 5.10.
For the molecule `COc1nc(Nc2ccc3c(n2)OC(CC(CF)CF)CN(C)C3)ccc1-n1cnc(C)c1` (stereo not drawn) [Example 32, [8-(3-Fluoro-2-fluoromethyl-propyl)-6-methyl-5,6,7,8-tetrahydro-9-oxa-1,6-diaza-benzocyclohepten-2-yl]-[6-methoxy-5-(4-methyl-imidazol-1-yl)-pyridin-2-yl]-amine], the pIC50 in the test with Aβ42 (setting [1]) was 8.15; in the test with Aβtotal, less than 5.30; in the test on Notch (Homo sapiens), less than 5.10.
For `COc1nc(Nc2ccc3c(n2)O[C@H](c2ccccc2)CN(C)C3)ccc1-c1cnc(C)o1` [Example 49, (2R)—N-[6-Methoxy-5-(2-methyloxazol-5-yl)-2-pyridyl]-4-methyl-2-phenyl-3,5-dihydro-2H-pyrido[3,2-f][1,4]oxazepin-8-amine] the same measures were 8.70, 5.26 and 5.66.
